Results published in ChEMBL document CHEMBL1201862, “PubChem BioAssay data set” (2004).
Activity calls are given as the source filed them.

Columns and labels:
[1] = target: Photoreceptor-specific nuclear receptor (Homo sapiens, UniProt Q9Y5X4); assay: NR2E3 inverse agonists, dose response, biochemical, TR-FRET (AID 463256); type: functional
[2] = target: Peroxisome proliferator-activated receptor gamma/Nuclear receptor corepressor 2 (Homo sapiens, UniProt P37231+Q9Y618); assay: Counterscreen for NR2E3 inverse agonists: TR-FRET-based biochemical high throughput dose response assay to identify inverse agonists of the interaction between peroxisome proliferator-activated receptor gamma (PPARg) and nuclear receptor co-repressor 2 (NCOR2).; type: functional
Chain of Peroxisome proliferator-activated receptor gamma/Nuclear receptor corepressor 2 (P37231 whole entry): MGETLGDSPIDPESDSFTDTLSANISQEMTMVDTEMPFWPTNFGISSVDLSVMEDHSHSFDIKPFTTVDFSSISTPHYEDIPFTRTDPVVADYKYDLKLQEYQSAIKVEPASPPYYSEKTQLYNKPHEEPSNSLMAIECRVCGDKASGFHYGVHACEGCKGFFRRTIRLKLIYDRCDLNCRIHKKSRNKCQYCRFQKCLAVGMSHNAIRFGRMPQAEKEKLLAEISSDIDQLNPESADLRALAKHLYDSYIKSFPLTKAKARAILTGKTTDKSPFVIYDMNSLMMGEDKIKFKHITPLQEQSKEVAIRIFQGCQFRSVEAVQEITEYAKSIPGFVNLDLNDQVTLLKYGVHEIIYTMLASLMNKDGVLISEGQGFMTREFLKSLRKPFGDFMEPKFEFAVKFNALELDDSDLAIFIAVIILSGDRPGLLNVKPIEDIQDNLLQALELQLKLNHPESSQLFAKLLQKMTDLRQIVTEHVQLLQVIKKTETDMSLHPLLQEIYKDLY
Chain of Peroxisome proliferator-activated receptor gamma/Nuclear receptor corepressor 2 (Q9Y618 whole entry): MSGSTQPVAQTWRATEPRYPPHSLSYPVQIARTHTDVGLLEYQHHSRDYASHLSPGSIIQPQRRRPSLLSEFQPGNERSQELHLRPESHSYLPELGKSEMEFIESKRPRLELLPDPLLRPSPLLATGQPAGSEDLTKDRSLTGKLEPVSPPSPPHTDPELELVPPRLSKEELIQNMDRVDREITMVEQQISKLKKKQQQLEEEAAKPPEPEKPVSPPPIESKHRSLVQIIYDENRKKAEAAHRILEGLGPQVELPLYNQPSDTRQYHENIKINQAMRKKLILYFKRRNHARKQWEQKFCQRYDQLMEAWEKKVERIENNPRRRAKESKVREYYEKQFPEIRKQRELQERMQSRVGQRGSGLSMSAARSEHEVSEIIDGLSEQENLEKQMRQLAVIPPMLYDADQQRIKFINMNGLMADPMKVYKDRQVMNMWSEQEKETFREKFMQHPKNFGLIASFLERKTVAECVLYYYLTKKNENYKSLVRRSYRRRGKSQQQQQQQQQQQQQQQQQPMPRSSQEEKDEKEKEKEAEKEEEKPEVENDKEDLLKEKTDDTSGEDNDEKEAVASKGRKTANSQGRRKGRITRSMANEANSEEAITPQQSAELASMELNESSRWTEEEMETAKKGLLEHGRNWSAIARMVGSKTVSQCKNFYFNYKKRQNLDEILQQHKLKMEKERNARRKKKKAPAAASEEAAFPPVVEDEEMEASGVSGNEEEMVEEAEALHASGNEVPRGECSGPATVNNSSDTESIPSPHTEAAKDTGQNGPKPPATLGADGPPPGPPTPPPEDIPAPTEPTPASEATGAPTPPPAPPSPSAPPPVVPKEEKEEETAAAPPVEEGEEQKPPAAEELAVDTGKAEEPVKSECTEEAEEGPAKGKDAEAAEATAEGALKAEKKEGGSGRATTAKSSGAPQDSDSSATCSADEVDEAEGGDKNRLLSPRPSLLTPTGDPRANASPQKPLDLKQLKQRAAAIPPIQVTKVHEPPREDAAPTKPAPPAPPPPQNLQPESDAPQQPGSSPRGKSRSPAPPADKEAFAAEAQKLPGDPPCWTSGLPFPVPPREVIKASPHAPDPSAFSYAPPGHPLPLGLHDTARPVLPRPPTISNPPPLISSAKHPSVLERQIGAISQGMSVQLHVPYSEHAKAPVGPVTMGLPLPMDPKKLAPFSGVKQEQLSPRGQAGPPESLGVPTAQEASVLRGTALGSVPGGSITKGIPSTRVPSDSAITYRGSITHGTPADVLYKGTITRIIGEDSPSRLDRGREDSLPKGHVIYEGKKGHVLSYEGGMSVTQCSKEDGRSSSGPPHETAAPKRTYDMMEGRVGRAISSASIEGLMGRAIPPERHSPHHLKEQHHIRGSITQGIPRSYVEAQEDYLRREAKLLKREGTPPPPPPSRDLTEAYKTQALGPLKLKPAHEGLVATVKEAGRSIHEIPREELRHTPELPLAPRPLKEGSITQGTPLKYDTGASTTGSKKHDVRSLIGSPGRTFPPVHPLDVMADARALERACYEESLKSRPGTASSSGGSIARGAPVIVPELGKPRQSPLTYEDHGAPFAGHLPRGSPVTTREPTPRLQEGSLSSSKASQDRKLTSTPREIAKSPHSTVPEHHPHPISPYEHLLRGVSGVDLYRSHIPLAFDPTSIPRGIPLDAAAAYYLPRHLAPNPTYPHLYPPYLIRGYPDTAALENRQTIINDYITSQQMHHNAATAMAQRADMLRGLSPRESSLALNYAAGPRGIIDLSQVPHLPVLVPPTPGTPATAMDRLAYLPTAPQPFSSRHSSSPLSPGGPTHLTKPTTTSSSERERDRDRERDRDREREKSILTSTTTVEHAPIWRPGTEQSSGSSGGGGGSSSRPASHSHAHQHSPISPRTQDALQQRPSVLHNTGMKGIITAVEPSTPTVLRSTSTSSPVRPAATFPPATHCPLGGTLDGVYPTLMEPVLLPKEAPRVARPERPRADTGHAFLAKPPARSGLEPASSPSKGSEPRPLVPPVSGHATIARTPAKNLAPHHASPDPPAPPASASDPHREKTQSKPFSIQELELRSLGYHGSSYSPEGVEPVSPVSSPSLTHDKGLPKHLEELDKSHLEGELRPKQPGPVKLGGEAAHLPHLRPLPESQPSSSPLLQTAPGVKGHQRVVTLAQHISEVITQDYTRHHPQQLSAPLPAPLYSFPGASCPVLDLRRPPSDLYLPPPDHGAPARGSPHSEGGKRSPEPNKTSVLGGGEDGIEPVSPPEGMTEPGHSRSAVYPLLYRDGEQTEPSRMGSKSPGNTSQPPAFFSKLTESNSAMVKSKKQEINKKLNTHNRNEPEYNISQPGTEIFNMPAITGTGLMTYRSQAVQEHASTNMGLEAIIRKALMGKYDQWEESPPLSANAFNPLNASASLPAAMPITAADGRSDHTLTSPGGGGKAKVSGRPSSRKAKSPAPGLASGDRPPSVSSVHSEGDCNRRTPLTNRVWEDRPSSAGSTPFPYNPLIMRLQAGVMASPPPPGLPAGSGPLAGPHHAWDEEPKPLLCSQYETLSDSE

Nonstructural protein 1 = Nonstructural protein 1 (Influenza A virus, UniProt Q194T2); type: functional, Influenza A virus (A/California/07/2009(H1N1))
[3] = target: T1, RNA-editing ligase 1, mitochondrial (Trypanosoma brucei brucei, UniProt P86926); assay: TbREL1 ligase inhibitors, dose response, biochemical, fluorescence, Trypanosoma brucei (AID 1117295); type: functional
T1 sequence (P86926 whole entry): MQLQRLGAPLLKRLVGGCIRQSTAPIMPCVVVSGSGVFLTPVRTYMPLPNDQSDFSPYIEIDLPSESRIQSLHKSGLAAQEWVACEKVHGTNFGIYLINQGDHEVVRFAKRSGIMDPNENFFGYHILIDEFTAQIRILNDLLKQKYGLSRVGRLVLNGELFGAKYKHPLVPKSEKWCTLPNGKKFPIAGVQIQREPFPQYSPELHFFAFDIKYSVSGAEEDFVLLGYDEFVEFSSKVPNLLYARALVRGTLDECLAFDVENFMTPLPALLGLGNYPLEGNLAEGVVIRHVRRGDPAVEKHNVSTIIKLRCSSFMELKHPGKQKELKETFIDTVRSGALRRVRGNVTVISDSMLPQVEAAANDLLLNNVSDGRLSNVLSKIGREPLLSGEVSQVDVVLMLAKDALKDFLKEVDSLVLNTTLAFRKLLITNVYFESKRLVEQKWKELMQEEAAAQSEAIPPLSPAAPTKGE

[4] = target: Induced myeloid leukemia cell differentiation protein Mcl-1 (Homo sapiens, UniProt Q07820); type: functional
[5] = inhibitors of firefly luciferase expression or activity, dose response, H4 neuroglioma cells, luminescence (AID 1990); type: functional, cell-based
[6] = target: Disintegrin and metalloproteinase domain-containing protein 17 (Homo sapiens, UniProt P78536); assay: exosite inhibitors of ADAM17, dose response, biochemical (AID 743260)
Chain of Disintegrin and metalloproteinase domain-containing protein 17 (P78536 whole entry, the tested form may be a part): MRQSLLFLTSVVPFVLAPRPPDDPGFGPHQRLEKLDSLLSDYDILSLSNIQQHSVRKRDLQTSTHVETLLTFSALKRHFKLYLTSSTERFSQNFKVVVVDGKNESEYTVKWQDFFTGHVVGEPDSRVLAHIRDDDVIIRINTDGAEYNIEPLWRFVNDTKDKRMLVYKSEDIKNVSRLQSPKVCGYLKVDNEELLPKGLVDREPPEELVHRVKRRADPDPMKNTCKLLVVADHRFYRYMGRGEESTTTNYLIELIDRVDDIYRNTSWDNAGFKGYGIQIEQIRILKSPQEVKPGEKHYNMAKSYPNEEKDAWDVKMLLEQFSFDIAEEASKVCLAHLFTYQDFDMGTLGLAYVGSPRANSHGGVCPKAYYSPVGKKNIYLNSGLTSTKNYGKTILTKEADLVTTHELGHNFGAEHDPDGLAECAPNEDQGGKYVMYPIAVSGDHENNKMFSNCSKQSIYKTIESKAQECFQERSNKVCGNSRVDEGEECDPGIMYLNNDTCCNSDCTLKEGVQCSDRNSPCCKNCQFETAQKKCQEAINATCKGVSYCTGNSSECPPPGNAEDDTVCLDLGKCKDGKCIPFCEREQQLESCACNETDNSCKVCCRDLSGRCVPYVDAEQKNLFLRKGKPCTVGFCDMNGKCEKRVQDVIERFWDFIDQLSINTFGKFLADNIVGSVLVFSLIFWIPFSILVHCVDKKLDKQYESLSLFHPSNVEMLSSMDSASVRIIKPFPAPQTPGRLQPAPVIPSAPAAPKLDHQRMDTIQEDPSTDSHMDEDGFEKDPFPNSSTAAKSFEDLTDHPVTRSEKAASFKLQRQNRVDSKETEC

[7] = Luminescence Cell-Based Dose Response HTS to Identify Inhibitors of 5'UTR Stem-Loop Driven Prion Protein mRNA Translation in H4 Neuroglioblastoma Cells. [Related pubchem assays: 1827 (Project Summary), 1813 (Primary HTS)]; type: functional
[8] = inhibitors of SNCA 5'UTR-driven reporter translation, confirmation, H4 neuroglioma cells, luminescence (AID 1988); type: functional, cell-based
[9] = ADAM10 protease inhibitors, dose response, selectivity assay for ADAM17 exosite inhibitor project, biochemical, FRET peptide substrate, recombinant human ADAM10 (AID 743259);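 further: ADAM10 enzyme cleaving a FRET peptide substrate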
[10] = target: Peroxisome proliferator-activated receptor gamma/Nuclear receptor coactivator 3 (Homo sapiens, UniProt P37231); assay: TR-FRET dose response biochemical High Throughput Screening assay for agonists of the steroid receptor coactivator 3 (SRC-3) recruitment by the peroxisome proliferator-activated receptor gamma (PPAR gamma): non-selective agonists. [Related pubchem assays: 1301 (Confirmation screen.), 1048 (Primary screen.)]; type: functional
[11] = target: Peroxisome proliferator-activated receptor gamma/Nuclear receptor coactivator 2 (Homo sapiens, UniProt P37231); assay: TR-FRET dose response biochemical High Throughput Screening assay for agonists of the steroid receptor coactivator 2 (SRC-2) recruitment by the peroxisome proliferator-activated receptor gamma (PPAR gamma): non-selective agonists. [Related pubchem assays: 1297, 1032 ]; type: functional
Major prion protein = Major prion protein (Homo sapiens, UniProt P04156); type: functional, cell-based
[12] = cytotoxicity in OVCAR8 ovarian cancer cells, dose response, PAX8 project, cell-based, plate reader, dry powder samples (AID 743197); type: functional; details: OVCAR-8
Paired box protein Pax-8 = Paired box protein Pax-8 (Homo sapiens, UniProt Q06710); assay: inhibitors of PAX8-driven TPO luciferase reporter, dose response, RMG-I cells, cherry-pick (AID 687027); type: functional, cell-based;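 further: luciferase reporter driven by Pax8 target thyroperoxidase promoter measured by SteadyGlo luminescence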
Chain of Paired box protein Pax-8 (Q06710 whole entry): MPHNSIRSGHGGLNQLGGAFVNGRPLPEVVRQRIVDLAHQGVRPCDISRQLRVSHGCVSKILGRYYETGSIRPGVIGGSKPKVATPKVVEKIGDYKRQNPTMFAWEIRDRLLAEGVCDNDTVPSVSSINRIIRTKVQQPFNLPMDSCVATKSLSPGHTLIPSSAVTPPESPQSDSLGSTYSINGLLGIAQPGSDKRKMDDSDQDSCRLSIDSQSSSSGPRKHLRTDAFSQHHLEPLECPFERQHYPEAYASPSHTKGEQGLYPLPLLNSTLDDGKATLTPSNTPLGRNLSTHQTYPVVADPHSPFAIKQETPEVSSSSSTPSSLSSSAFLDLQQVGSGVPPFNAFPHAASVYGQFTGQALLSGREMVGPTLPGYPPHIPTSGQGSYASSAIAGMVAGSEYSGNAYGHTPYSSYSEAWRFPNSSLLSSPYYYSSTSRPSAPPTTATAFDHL

[13] = IGROV1 ovarian cancer cell cytotoxicity, dose response, PAX8 inhibitor project, plate reader, dry powder samples (AID 743043); type: functional, cell-based; details: IGROV-1
[14] = P. falciparum Dd2 growth inhibitors, dose response, SYBR Green, dry powder samples (AID 1159566); type: functional, cell-based;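 further: potency for growth inhibition with lower SYBR green DNA signal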
[15] = HepG2 cell cytotoxicity, dose response, cytotoxicity control, plate reader, dry powder samples (AID 1159569); type: functional, cell-based;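 further: inhibitor potency with signal falling toward the positive control level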
[16] = P. falciparum Dd2 growth inhibitors, dose response, SYBR Green, cherry-picked samples (AID 1159567); type: functional, cell-based
[17] = P. falciparum ATP4 D1247Y mutant growth inhibitors, dose response, NITD609-resistant line, SYBR Green, dry powder (AID 1159571); type: functional, cell-based;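 further: parasites synchronized at ring stage by sorbitol before testing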
[18] = HepG2 cell cytotoxicity, dose response, cytotoxicity control, cherry-picked samples (AID 1159577); type: functional, cell-based
[19] = P. falciparum 3D7-ScDHODH growth inhibitors, dose response, SYBR Green, dry powder samples (AID 1159570); type: functional, cell-based;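 further: parasite growth measured after 72 hours of compound exposure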
[20] = target: NAD-dependent protein deacylase sirtuin-5, mitochondrial (Homo sapiens, UniProt Q9NXA8); assay: SIRT5 desuccinylase inhibitors, dose response, biochemical, fluorescence imaging, cherry-pick, set 5 (AID 720591);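 further: desuccinylation of succinyl peptide AMC substrate read as fluorescence after trypsin release; potency of inhibitors that lower fluorescence and may act on trypsin instead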
Chain of NAD-dependent protein deacylase sirtuin-5, mitochondrial (Q9NXA8 whole entry): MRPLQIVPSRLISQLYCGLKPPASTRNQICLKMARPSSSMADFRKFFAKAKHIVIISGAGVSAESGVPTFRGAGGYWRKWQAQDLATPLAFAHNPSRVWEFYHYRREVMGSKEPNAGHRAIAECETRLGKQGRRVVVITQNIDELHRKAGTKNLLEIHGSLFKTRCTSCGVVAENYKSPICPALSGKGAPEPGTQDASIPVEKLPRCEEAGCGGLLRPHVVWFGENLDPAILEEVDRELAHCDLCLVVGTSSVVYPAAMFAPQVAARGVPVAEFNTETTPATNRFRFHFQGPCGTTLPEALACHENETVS

Albumin = Albumin (Bos taurus, UniProt P02769); assay: Counterscreen for inhibitors of T-cell receptor (TCR)-CD3 interaction: Fluorescence-based biochemical high throughput dose response assay to identify inhibitors of T-cell receptor (TCR)-CD3 interaction using a TAMRA-labeled BSA probe.; type: functional
Kallikrein-7 = Kallikrein-7 (Homo sapiens, UniProt P49862); assay: Fluorescence Intensity-based biochemical primary high throughput dose response assay to identify activators of kallikrein-7 (K7) zymogen.
[21] = inhibitors of PGC1a acetylation in cells, dose response, cell-based, cherry-picked samples (AID 720514); type: functional;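 further: potency may reflect raised or lowered acetylation signal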
[22] = NIH:OVCAR-3 ovarian cancer cell cytotoxicity, dose response, PAX8 inhibitor project, plate reader, dry powder samples (AID 743044); type: functional, cell-based
[23] = target: Protein-tyrosine kinase 2-beta (Homo sapiens, UniProt Q14289);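 further: potency of inhibitors of PYK2 kinase phosphorylation of poly-GT substrate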
Prothrombin = Prothrombin (Homo sapiens, UniProt P00734); assay: Thrombin 1536 HTS Dose Response Confirmation. [Related pubchem assays: 1046 (Thrombin 1536 HTS; hits were confirmed in this assay)]; type: functional
Fatty acid synthase [24] = target: T2, Fatty acid synthase (Homo sapiens, UniProt P49327); assay: FAS thioesterase domain inhibitors, dose response, biochemical, kinetic fluorescence intensity (AID 624326); type: functional;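 further: rate of fluorescence rise from hydrolysis of a fluorogenic O-methyl fluorescein ester substrate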
Fatty acid synthase [25] = target: T2, Fatty acid synthase; assay: FAS thioesterase domain inhibitors, dose response, biochemical, endpoint fluorescence intensity, uHTS hits (AID 624327); type: functional;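 further: fluorescence from hydrolysis of an O-methyl fluorescein acyl ester substrate by the enzyme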
[26] = T. cruzi growth inhibition in host cells, dose response, cell-based, plate reader, dry powder, set 2 (AID 652275); type: functional

Chain of Photoreceptor-specific nuclear receptor (Q9Y5X4 whole entry): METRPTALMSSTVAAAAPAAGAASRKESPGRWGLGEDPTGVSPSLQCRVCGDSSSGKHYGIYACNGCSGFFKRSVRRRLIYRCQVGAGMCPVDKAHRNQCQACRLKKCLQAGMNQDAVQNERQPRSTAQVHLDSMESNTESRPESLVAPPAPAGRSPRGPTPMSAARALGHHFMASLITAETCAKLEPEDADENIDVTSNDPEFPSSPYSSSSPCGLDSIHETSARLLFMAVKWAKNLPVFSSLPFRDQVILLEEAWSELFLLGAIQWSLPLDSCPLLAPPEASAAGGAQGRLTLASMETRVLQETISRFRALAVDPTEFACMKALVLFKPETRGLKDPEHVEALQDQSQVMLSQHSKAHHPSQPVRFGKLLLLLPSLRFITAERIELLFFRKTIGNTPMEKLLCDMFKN

Compound: COc1cccc(-c2cc(C(=O)Nc3cc(C)on3)no2)c1
- IC50 [1]: > 39.8 µM (not active)
- IC50 [2]: > 39.8 µM (not active)

Compound: Cc1n[nH]c(=S)n(NC(=O)/C=C/C(=O)Nn2c(=S)[nH]nc(C)c2=O)c1=O
- IC50 (Nonstructural protein 1): 7.29 µM (active)
- IC50 [3]: 63.6 µM (inactive)
- IC50 [4]: 4.67 µM (active)

Compound: CCOC(=O)c1c(-c2ccccc2)csc1NC(=O)CSc1nncs1
- EC50 [5]: 15.8 µM (active)
- IC50 [6]: > 69.5 µM (inactive)
- EC50 [7]: > 120 µM (not active)
- EC50 [8]: 30.6 µM (active)
- IC50 [9]: > 69.5 µM (inactive)

Compound: N#CC1=C2SCN(Cc3ccccc3)CN2C(=O)CC1c1cccs1 (centres undefined)
- IC50 (cells): > 138 µM (inactive)
- EC50 [10]: > 79.4 µM (not active)
- EC50 [11]: > 79.4 µM (not active)
- IC50 (Major prion protein): > 138 µM (inactive)

Compound: C[C@H]1CCCCO[C@H](CN(C)Cc2ccc(C(F)(F)F)cc2)[C@@H](C)CN([C@@H](C)CO)C(=O)c2cc(NS(=O)(=O)c3ccc(Cl)cc3)ccc2O1
- AC50 [12]: > 70 µM (inactive)
- AC50 (Paired box protein Pax-8): 4.73 µM (active)
- AC50 [13]: 36 µM (active)

Compound: CCCc1cn(CC[C@@H]2CC[C@@H](NS(=O)(=O)c3ccc(-c4ccccc4)cc3)[C@H](CO)O2)nn1
- AC50 [14]: 1.99 µM (active)
- AC50 [15]: 37.5 µM (active)
- AC50 [16]: 1.7 µM (active)
- AC50 [17]: 1.82 µM (active)
- AC50 [18]: 23.3 µM (active)
- AC50 [19]: 2.17 µM (active)

Compound: O=C(Oc1ccc(Oc2ccccc2)cc1)N1CCC(O)CC1
- AC50 [20]: > 30 µM (inactive)

Compound: Cc1csc(NC(=O)COc2ccc3c(C)cc(=O)oc3c2)n1
- IC50 [1]: 7.06 µM (active)
- IC50 [2]: > 39.8 µM (not active)

Compound: O=C(CSc1nc2ccccc2c(=O)n1-c1ccc(F)c(Cl)c1)Nc1cccc(S(=O)(=O)N2CCOCC2)c1
- IC50 (Albumin): > 94.2 µM (inactive)

Compound: COc1ccc(OC)c(NC(=O)COC(=O)Cc2ccc(-c3ccccc3)cc2)c1
- IC50 [6]: > 69.5 µM (inactive)
- IC50 [9]: > 69.5 µM (inactive)

Compound: Cc1cc(C)c2c(n1)nn1c(NCCN3CCOCC3)cc(C)nc21
- EC50 (Kallikrein-7): 34.8 µM (inactive)

Compound: Cc1ccc(CN2C(=O)[C@H]3Cc4c([nH]c5ccccc45)C(C)(C)N3C2=O)cc1
- IC50 [6]: > 69.5 µM (inactive)
- IC50 [9]: > 69.5 µM (inactive)

Compound: CC1CCCN(CC(=O)N2CCCc3ccccc32)C1.[O-][Cl+3]([O-])([O-])O (centres undefined)
- AC50 [21]: 27.1 µM (active)

Compound: C[C@@H]1CCCCO[C@H](CN(C)Cc2ccc(C(F)(F)F)cc2)[C@@H](C)CN([C@@H](C)CO)C(=O)c2cc(NS(=O)(=O)c3ccc(F)cc3)ccc2O1
- AC50 [12]: 29.7 µM (active)
- AC50 [22]: 21.5 µM (active)
- AC50 (Paired box protein Pax-8): 8.57 µM (active)
- AC50 [13]: 31 µM (active)

Compound: COC(=O)C1=C(C)N(Cc2ccc(C(F)(F)F)cc2)C(NCc2ccccc2C(F)(F)F)=NC1c1ccc(Cl)cc1 (centres undefined)
- IC50 [3]: > 96.6 µM (inactive)

Compound: O=C(CN1C(=O)NC2(CCCc3ccccc32)C1=O)NCC(F)(F)F (centres undefined)
- IC50 [1]: 8.55 µM (active)
- IC50 [2]: 7.85 µM (active)

Compound: Cc1cccc(NC(=O)N2CCCC(CNC(=O)c3ccccc3Cl)C2)c1C (centres undefined)
- AC50 [20]: > 30 µM (inactive)

Compound: C(=C\c1ccc([C@H]2[C@@H]3CN(Cc4cccnc4)C[C@H]2N3)cc1)/c1ccccc1
- AC50 [14]: 3.79 µM (active)
- AC50 [15]: 18.6 µM (active)
- AC50 [16]: 2.81 µM (active)
- AC50 [17]: 3.95 µM (active)
- AC50 [18]: 27.5 µM (active)
- AC50 [19]: 4.3 µM (active)

Compound: CCOC(=O)CSc1nc(C(C)C)nc2ccccc12
- IC50 (cells): > 138 µM (inactive)
- IC50 [23]: > 69.5 µM (not active)
- IC50 (Major prion protein): 1.08 µM (active)

Compound: Cc1cc(NC(=O)CSc2nnc3ccc(-c4ccccc4)nn23)no1
- AC50 [20]: > 30 µM (inactive)

Compound: COc1ccc(C2C3=C(O)CC(C)(C)CC3=NC(C)=C2C(=O)N2CCOCC2)c(OC)c1 (centres undefined)
- EC50 (Kallikrein-7): 52.4 µM (inactive)

Compound: C[C@@H]1CN([C@H](C)CO)C(=O)c2cc(NC(=O)Nc3ccc(F)cc3)ccc2O[C@@H](C)CCCCO[C@H]1CN(C)C(=O)NC1CCCCC1
- AC50 [22]: 43.1 µM (active)
- AC50 (Paired box protein Pax-8): 6.55 µM (active)

Compound: CCn1cc(C(=O)NCc2ccco2)c(=O)c2cc(S(=O)(=O)N3CCCCCC3)ccc21
- IC50 (Prothrombin): 14.7 µM (active)
- IC50 (Fatty acid synthase [24]): 2.32 µM (active)
- IC50 (Fatty acid synthase [25]): 2.96 µM (active)

Compound: OC[C@@H]1CC[C@@H]2O[C@H](CCc3ccc(C#CCc4ccccc4)cc3)[C@H](n3cc(-c4ccccc4)nn3)C[C@@H]2O1
- AC50 [14]: 0.879 µM (active)
- AC50 [15]: > 100 µM (inactive)
- AC50 [16]: 1.45 µM (active)
- AC50 [17]: 1.53 µM (active)
- AC50 [19]: 1.79 µM (active)

Compound: CC(C)N1CC2(CN(Cc3ccc(F)c(F)c3)C2)Oc2c(NC(=O)c3ccncc3)cccc2C1=O
- AC50 [26]: 1.05 µM (active)

Compound: COC(=O)C1=C(C)N(Cc2cccc(C(F)(F)F)c2)C(NCc2ccccc2C(F)(F)F)=NC1c1cccc(F)c1 (centres undefined)
- IC50 [3]: > 96.6 µM (inactive)

Compound: CCC(=O)N1CC[C@@H]2[C@H]1c1cc(Br)ccc1N(C)[C@@H]2CO
- AC50 [26]: 11.7 µM (active)

Compound: CC(C)OC(=O)CSc1nc(Cc2ccccc2)nc2ccccc12
- IC50 (cells): > 138 µM (inactive)
- IC50 (Major prion protein): 4.45 µM (active)

Compound: CC(C)N1C[C@@H](CN(C)Cc2ccc(Cl)cc2)Oc2c(C(=O)Nc3ccnnc3)cccc2C1=O
- AC50 [26]: 0.299 µM (active)

Compound: CC(=N)/C(C#N)=C(/O)CSc1nc2cc(Cl)ccc2s1
- IC50 (Prothrombin): > 50 µM (not active)
